Assay [1] deals with 5-lipoxygenase. As to conditions: Young, Dyer, Carter, Federation Proceedings 44(4):904, 1985; cited from earlier work.
Assay [2] deals with T1, 5-lipoxygenase (Rattus norvegicus, UniProt P12527).
T1 construct: 20,000x g supernatant from homogenized RBL-1 cells; endogenous in cells; host or cells: RBL-1 cells (20,000x g supernatant of homogenate)
T1 sequence (P12527 1-673): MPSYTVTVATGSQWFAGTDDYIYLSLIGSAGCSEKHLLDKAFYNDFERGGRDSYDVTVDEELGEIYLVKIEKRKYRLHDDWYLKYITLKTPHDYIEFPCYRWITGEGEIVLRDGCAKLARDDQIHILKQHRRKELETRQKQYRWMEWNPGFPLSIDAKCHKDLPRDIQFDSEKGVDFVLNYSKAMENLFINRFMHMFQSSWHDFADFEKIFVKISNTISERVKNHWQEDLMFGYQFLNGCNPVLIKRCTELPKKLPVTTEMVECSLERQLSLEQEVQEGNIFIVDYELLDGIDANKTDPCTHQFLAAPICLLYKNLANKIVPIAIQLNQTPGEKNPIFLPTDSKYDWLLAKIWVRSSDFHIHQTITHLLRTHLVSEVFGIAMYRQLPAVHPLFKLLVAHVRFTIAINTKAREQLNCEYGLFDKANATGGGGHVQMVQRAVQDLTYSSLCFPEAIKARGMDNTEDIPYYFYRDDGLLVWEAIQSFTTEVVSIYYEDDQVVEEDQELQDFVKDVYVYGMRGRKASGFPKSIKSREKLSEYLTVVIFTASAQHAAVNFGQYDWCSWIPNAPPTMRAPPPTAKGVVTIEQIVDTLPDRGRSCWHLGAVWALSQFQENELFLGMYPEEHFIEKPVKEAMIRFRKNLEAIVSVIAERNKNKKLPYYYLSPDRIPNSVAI
The experiment in a line: Inhibition of 5-lipoxygenase activity (20,000x g supernatant from homogenized RBL-1 cells). The assay is classed as biochemical. As to conditions: In vitro, 20,000x g supernatant from homogenized RBL-1 cells. The protocol: Inhibition of 5-lipoxygenase activity was determined using the 20,000x g supernatant from homogenized RBL-1 cells in a similar manner as that described by Dyer and coworkers (Dyer, R.D.; Haviv, F,; Hanel, A. M.; Bornemier, D. A.; Carter, G. W. Fed. Proc., Fed. Am. Soc. Exp. Biol. 1984, 43, 1462A). IC50 values (concentration of compound producing 50% enzyme inhibition) were calculated by linear regression analysis of percentage inhibition versus log inhibitor concentration plots.

The conditions of assay [3]: Drugs of the Future, 8, 1023, 1983; cited from earlier work.
For assay [4], the system named is tumor cell growth. The conditions noted are these: in rats; Ger. Offen. 2931, 573; cited from earlier work.

Take `OCCN(CCO)c1nc(N2CCCCC2)c2nc(N(CCO)CCO)nc(N3CCCCC3)c2n1` [dipyridamole, 2,6-bis-(diethanolamino)-4,8-dipiperidinopyrimido[5,4-d]pyrimidine]: the “reported to be an inhibitor of 5-lipoxygenase” value in assay [1] is on record as “inhibitor of 5-lipoxygenase”.
Take `CN(CCO)c1nc(N2CCCCC2)c2nc(N(C)CCO)nc(N3CCCCC3)c2n1` [Example 1, 2,6-bis-2-(Methylamino)ethanol-4,8-bis-N-piperidinopyrimido[5,4-d]pyrimidine]: in assay [2], the IC50 came to 340 nM.
The same measure, in the same setting: as for `CN(CCO)c1nc(N2CCCCCC2)c2nc(N(C)CCO)nc(N3CCCCCC3)c2n1` [Example 3, 2,6-bis-2-(Methylamino)ethanol-4,8-bis-N-perhydroazepinepyrimido-[5,4-d]pyrimidine], the figure is 300 nM; as for `OCCNc1nc(N2CCCCC2)c2nc(NCCO)nc(N3CCCCC3)c2n1` [Example 2, 2,6-bis-Aminoethanol-4,8-bis-N-piperidinopyrimido[5,4-d]pyrimidine], 2900 nM; as for `CN(CCO)c1nc(N2CCCCCCC2)c2nc(N(C)CCO)nc(N3CCCCCCC3)c2n1` [Example 4, 2,6-bis-2-(Methylamino)ethanol-4,8-bis-N-perhydroazocinepyrimido[5,4-d]pyrimidine], 920 nM.
`CCN(CC)c1nc(N(CCO)CCOC)nc2c(N(CC)CC)nc(N(CCO)CCOC)nc12` [2,6-bis-(2-hydroxyethyl-2-methoxyethylamino)-4,8-bis-(diethylamino)pyrimido[5,4-d]pyrimidine]: in assay [3], the “reported to be a hypertensive agent” value was “hypertensive agent”.
Consider `OCCN(CCO)c1nc(N2CCCCC2)c2nc(N(CCO)CCO)ncc2n1` [2,6-bis-(diethanolamino)-4-piperidinopyrimido[5,4d]pyridimine], for which, in assay [4], the “inhibit tumor cell growth” value is “shown to inhibit tumor cell growth in rats”.
